Entries after “also recorded” stand apart in the source; their conditions may differ.
Experiments:
[1] = tested on: manna grass; assay: Experiment 1 foliar application to naturally growing weeds; assay type: in vivo, Digitaria adsceudes Henr.; settings: 2 months; also: key: -: no reproduction, namely complete suppression of reproduction; ±: remarkable suppression of reproduction; +: considerable suppression of reproduction; ++: medium supprestion of reproduction; +++: no suppression of reproduction
In short: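 Foliar spray on field weeds at 150 liter per 10 are, compounds at prescribed concentrations plus 0.1% octylphenyl polyoxyethanol. Day 21: killing index 0–5 (5 = death). Reproduction scored (-) to (+++) (- = none): cockspar grass at 2 months, chigaya, azumanezasa and warunasubi at 4 months.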

[2] = tested on: cockspar grass; assay: as above; assay type: in vivo, Echinochloa Crusgalli P. Beauv.; settings: 2 months; also: key: -: no reproduction, namely complete suppression of reproduction; ±: remarkable suppression of reproduction; +: considerable suppression of reproduction; ++: medium supprestion of reproduction; +++: no suppression of reproduction
In short: (§1)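 Naturally growing weeds receive a foliar spray of compound at prescribed concentrations, 150 liter per 10 are, containing 0.1% octylphenyl polyoxyethanol. Kill is rated 0 (no effect) to 5 (death) after 21 days. Regrowth is rated (-) to (+++) after 4 months, or 2 months for cockspar grass.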

[3] = tested on: yabugarashi; assay: as above; assay type: in vivo, Cayratia japonica Houtt.; settings: 4 months; also: key: -: no reproduction, namely complete suppression of reproduction; ±: remarkable suppression of reproduction; +: considerable suppression of reproduction; ++: medium supprestion of reproduction; +++: no suppression of reproduction
In short: as §1

[4] = tested on: purple nutsedge; assay: as above; assay type: in vivo, Cyperus rotundus L.; settings: 4 months; also: key: -: no reproduction, namely complete suppression of reproduction; ±: remarkable suppression of reproduction; +: considerable suppression of reproduction; ++: medium supprestion of reproduction; +++: no suppression of reproduction
In short: as §1

[5] = tested on: warunasubi; assay: as above; assay type: in vivo, Solanum carolinensis L.; settings: 4 months
In short: as §1

[6] = tested on: hedge bindweed; assay: as above; assay type: in vivo, Calystegis hederacea Wall.; settings: 4 months
In short: as §1

[7] = tested on: white clover; assay: as above; assay type: in vivo, Trifolium repens L.; settings: 4 months
In short: as §1

[8] = tested on: azumanezasa; assay: as above; assay type: in vivo, Pleioblastus Chino Makino; settings: 4 months
In short: as §1

[9] = tested on: chigaya; assay: as above; assay type: in vivo, Imperata cylindrica Beauv.; settings: 4 months
In short: as §1

[10] = tested on: kumaichigo; assay: Experiment 2 foliar application in Japanese cypress afforested land; assay type: in vivo, Rubus crataegifolius Bunge; settings: 0.125%; after 3 months
In short: (§2)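 Field foliar spray on shrubs in Japanese cypress afforested land at 150 liter per 10 are, with compounds at prescribed concentrations. Killing index scored from 0 (no effect) to 5 (death) at 30 days and 3 months. Plant heights ranged from about 50 to 100 cm.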

[11] = tested on: Japanese bush cranberry; assay: Experiment 3 foliar application to naturally growing shrubs; assay type: in vivo, Viburnum dilatatum Thunb.; settings: for Reproduction-inhibiting: after 3 months
In short: (§3)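 Naturally growing shrubs were sprayed on the foliage at 150 liter per 10 are. Plant kill was then scored from 0 to 5 at 1 and 3 months, and reproduction was graded − to +++ at 3 months.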

[12] = tested on: kiichigo; assay: as above; assay type: in vivo, Rubus palmatsu Thunb. forma coptophyllus Makino; settings: after 3 months
In short: as §3

[13] = tested on: Japanese prickly ash; assay: as above; assay type: in vivo, Xanthoxylum piperitum DC.; settings: after 3 months
In short: as §3

[14] = tested on: lace shrub; assay: as above; assay type: in vivo, Stephanandra incisa Zabel; settings: after 3 months
In short: as §3

[15] = tested on: yamazakura; assay: as above; assay type: in vivo, Prunus donarium Sieb. var. spontanae Makino; settings: after 3 months
In short: as §3

[16] = tested on: torch azalea; assay: as above; assay type: in vivo, Rhododendoron Kaempferi Planch.; settings: after 3 months
In short: as §3

[17] = tested on: oak; assay: as above; assay type: in vivo, Quercus serrata Thunb; settings: after 3 months
In short: as §3

[18] = tested on: weeds and shrubs; settings: background statement; cited from earlier work
[19] = tested on: eulalia; assay: Experiment 2 foliar application in Japanese cypress afforested land; assay type: in vivo, Miscanthus sinensis Andress.; design: key: 0 = no effect, 5 = death; settings: 0.5%; after 30 days
In short: as §2

O=C(O)CNCP(=O)(O)O [Glyphosate, N-phosphonomethylglycine]
Reproduction-inhibiting effect ([1]; 0.05%): +++ | Reproduction-inhibiting effect ([1]; 0.1%): ++ | Reproduction-inhibiting effect ([1]; 0.2%): + | Reproduction-inhibiting effect ([2]; 0.05%): +++ | Reproduction-inhibiting effect ([2]; 0.1%): ++ | Reproduction-inhibiting effect ([2]; 0.2%): + | Reproduction-inhibiting effect ([3]; 0.05%): +++ | Reproduction-inhibiting effect ([3]; 0.1%): +++ | Reproduction-inhibiting effect ([3]; 0.2%): ++ | Reproduction-inhibiting effect ([4]; 0.05%): +++ | Reproduction-inhibiting effect ([4]; 0.1%): +++ | Reproduction-inhibiting effect ([4]; 0.2%): + | Reproduction-inhibiting effect ([5]; 0.05%): +++ | Reproduction-inhibiting effect ([5]; 0.1%): +++ | Reproduction-inhibiting effect ([5]; 0.2%): + | Reproduction-inhibiting effect ([6]; 0.05%): +++ | Reproduction-inhibiting effect ([6]; 0.1%): +++ | Reproduction-inhibiting effect ([6]; 0.2%): +++ | Reproduction-inhibiting effect ([7]; 0.05%): +++ | Reproduction-inhibiting effect ([7]; 0.1%): ++ | Reproduction-inhibiting effect ([7]; 0.2%): + | Reproduction-inhibiting effect ([8]; 0.05%): +++ | Reproduction-inhibiting effect ([8]; 0.1%): ++ | Reproduction-inhibiting effect ([8]; 0.2%): + | Reproduction-inhibiting effect ([9]; 0.05%): +++ | Reproduction-inhibiting effect ([9]; 0.1%): ++ | Reproduction-inhibiting effect ([9]; 0.2%): ± | Killing index [10]: 0.5 | Reproduction-inhibiting ([11]; 0.05%): +++ | Reproduction-inhibiting ([11]; 0.1%): +++ | Reproduction-inhibiting ([11]; 0.2%): ++ | Killing index ([11]; 0.2%, after 30 days): 1.5 | Reproduction-inhibiting ([12]; 0.05%): +++ | Reproduction-inhibiting ([12]; 0.1%): +++ | Reproduction-inhibiting ([12]; 0.2%): ++ | Reproduction-inhibiting ([13]; 0.05%): +++ | Reproduction-inhibiting ([13]; 0.1%): +++ | Reproduction-inhibiting ([13]; 0.2%): +++ | Reproduction-inhibiting ([14]; 0.05%): +++ | Reproduction-inhibiting ([14]; 0.1%): +++ | Reproduction-inhibiting ([14]; 0.2%): +++ | Reproduction-inhibiting ([15]; 0.05%): +++ | Reproduction-inhibiting ([15]; 0.1%): +++ | Reproduction-inhibiting ([15]; 0.2%): ++ | Reproduction-inhibiting ([16]; 0.05%): +++ | Reproduction-inhibiting ([16]; 0.1%): +++ | Reproduction-inhibiting ([16]; 0.2%): +++ | Reproduction-inhibiting ([17]; 0.05%): +++ | Reproduction-inhibiting ([17]; 0.1%): +++ | Reproduction-inhibiting ([17]; 0.2%): +++ | weeding effects of known herbicides in words [18]: not so effective for broad-leaved weeds; also recorded: poor weeding effects for broadleaved weeds and shrubs

O=C([O-])C(F)(F)C(F)F.[Na+] [sodium 2,2,3,3-tetrafluoropropionate]
Killing index [19]: 4.5 | Reproduction-inhibiting ([11]; 0.1%): +++ | Reproduction-inhibiting ([11]; 0.2%): +++ | Reproduction-inhibiting ([11]; 0.4%): +++ | Reproduction-inhibiting ([12]; 0.1%): +++ | Reproduction-inhibiting ([12]; 0.2%): +++ | Reproduction-inhibiting ([12]; 0.4%): +++ | Reproduction-inhibiting ([13]; 0.1%): +++ | Reproduction-inhibiting ([13]; 0.2%): +++ | Reproduction-inhibiting ([13]; 0.4%): +++ | Reproduction-inhibiting ([14]; 0.1%): +++ | Reproduction-inhibiting ([14]; 0.2%): +++ | Reproduction-inhibiting ([14]; 0.4%): +++ | Reproduction-inhibiting ([15]; 0.1%): +++ | Reproduction-inhibiting ([15]; 0.2%): +++ | Reproduction-inhibiting ([15]; 0.4%): +++ | Reproduction-inhibiting ([16]; 0.1%): +++ | Reproduction-inhibiting ([16]; 0.2%): +++ | Reproduction-inhibiting ([16]; 0.4%): +++ | Reproduction-inhibiting ([17]; 0.1%): +++ | Reproduction-inhibiting ([17]; 0.2%): +++ | Reproduction-inhibiting ([17]; 0.4%): +++ | weeding effects of known herbicides in words [18]: effective for eulalia and bamboo grass; also recorded: not so effective for shrubs

Source: patent US4226610A, “Herbicidal compounds, preparation thereof and herbicides containing the same” (Meiji Selka Kaisha, Ltd., priority 1978, dated 1980)
